Each block holds one molecule with its values, some of them ahead of it.
Experiments:
Assay in all cases: pIC50, kinobeads binding competition
[1] = molecular target: UniProt P78368; settings: cell material: Lysate mix
Summary of the method: (§1)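 Live Jurkat cells were treated with nine compound concentrations (top 30 μM, 1:4 steps) or DMSO for 60 min at 37 °C before lysis. Alternatively, Jurkat lysate or a 1:1:1:1 HEK293/K-562/HepG2/placenta lysate mix was incubated with nine concentrations (top 30 μM, 1:5 steps) for 60 min at 4 °C. Kinobeads-bound proteins were digested and quantified by TMT10 LC-MS/MS. pIC50 came from logistic dose-response fits (R drc package) of fold changes versus DMSO, in biological duplicates.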

[2] = molecular target: TWF1 (UniProt Q12792); settings: cell material: Lysate mix
Summary of the method: as §1

[3] = molecular target: STRADB (UniProt Q9C0K7); settings: cell material: Lysate mix
Summary of the method: as §1

[4] = molecular target: UniProt Q9P286; settings: cell material: Lysate mix
Summary of the method: as §1

[5] = molecular target: PIK3CD (UniProt O00329); settings: cell material: Jurkat cells
Summary of the method: as §1

[6] = molecular target: UniProt P05129; settings: cell material: Jurkat cells
Summary of the method: as §1

[7] = molecular target: PASK (UniProt Q96RG2); settings: cell material: Jurkat cells
Summary of the method: as §1

[8] = molecular target: MTOR (UniProt P42345); settings: cell material: Jurkat cells
Summary of the method: as §1

[9] = molecular target: RIPK1 (UniProt Q13546); settings: cell material: Jurkat cells
Summary of the method: as §1

[10] = molecular target: TYRO3 (UniProt Q06418); settings: cell material: Jurkat lysate
Summary of the method: as §1

[11] = molecular target: UniProt Q6DT37; settings: cell material: Lysate mix
Summary of the method: as §1

[12] = molecular target: PAK6 (UniProt Q9NQU5); settings: cell material: Jurkat lysate
Summary of the method: as §1

[13] = molecular target: UniProt P19525; settings: cell material: Lysate mix
Summary of the method: as §1

[14] = molecular target: UniProt Q05513; settings: cell material: Lysate mix
Summary of the method: as §1

[15] = molecular target: UniProt P35590; settings: cell material: Lysate mix
Summary of the method: as §1

[16] = molecular target: T1, NLK (UniProt Q9UBE8); settings: cell material: Jurkat lysate
T1 sequence (whole entry): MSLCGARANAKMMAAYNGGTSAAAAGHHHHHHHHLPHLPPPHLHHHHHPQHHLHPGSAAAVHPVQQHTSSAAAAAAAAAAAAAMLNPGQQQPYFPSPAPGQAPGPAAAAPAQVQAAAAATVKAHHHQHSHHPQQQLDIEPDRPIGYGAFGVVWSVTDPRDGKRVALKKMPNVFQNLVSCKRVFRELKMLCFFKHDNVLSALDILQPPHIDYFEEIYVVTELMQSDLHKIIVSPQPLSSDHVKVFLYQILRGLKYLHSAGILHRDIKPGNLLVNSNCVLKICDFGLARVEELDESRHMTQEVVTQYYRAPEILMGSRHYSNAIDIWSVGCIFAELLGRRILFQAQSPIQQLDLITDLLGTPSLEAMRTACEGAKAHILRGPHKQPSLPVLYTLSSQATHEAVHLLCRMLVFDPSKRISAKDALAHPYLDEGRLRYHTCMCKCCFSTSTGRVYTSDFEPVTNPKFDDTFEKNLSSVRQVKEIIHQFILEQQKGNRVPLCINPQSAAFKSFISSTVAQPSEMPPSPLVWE

[17] = molecular target: SLK (UniProt Q9H2G2); settings: cell material: Jurkat lysate
[18] = molecular target: MAST4 (UniProt O15021); settings: cell material: Jurkat lysate
[19] = molecular target: UniProt P68400; settings: cell material: Jurkat lysate
[20] = molecular target: BMPR1A (UniProt P36894); settings: cell material: Jurkat lysate
[21] = molecular target: MAPKAPK3 (UniProt Q16644); settings: cell material: Jurkat lysate
[22] = molecular target: UniProt P28482; settings: cell material: Jurkat lysate
[23] = molecular target: T2, UniProt O14920; settings: cell material: Jurkat lysate
T2 sequence (whole entry): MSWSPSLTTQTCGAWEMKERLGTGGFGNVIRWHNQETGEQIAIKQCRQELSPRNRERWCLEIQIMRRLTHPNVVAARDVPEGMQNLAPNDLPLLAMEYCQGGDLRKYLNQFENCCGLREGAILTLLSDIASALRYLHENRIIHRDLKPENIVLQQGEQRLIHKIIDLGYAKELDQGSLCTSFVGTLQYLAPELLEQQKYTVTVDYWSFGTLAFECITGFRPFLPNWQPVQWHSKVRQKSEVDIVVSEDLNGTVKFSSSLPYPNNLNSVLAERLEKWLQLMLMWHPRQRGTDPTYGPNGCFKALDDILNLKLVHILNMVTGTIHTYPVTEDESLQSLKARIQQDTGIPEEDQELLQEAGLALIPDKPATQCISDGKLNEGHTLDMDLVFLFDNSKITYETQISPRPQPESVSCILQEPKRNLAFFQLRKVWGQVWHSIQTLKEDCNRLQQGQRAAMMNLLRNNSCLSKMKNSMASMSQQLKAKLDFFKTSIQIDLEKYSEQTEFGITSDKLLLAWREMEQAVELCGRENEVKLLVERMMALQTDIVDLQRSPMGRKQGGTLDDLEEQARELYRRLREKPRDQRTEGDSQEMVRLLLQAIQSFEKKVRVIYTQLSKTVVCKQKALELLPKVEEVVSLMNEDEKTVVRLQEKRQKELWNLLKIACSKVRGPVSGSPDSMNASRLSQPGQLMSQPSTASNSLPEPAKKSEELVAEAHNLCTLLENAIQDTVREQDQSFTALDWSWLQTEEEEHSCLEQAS

Chain of UniProt Q6DT37 (Q6DT37 whole entry): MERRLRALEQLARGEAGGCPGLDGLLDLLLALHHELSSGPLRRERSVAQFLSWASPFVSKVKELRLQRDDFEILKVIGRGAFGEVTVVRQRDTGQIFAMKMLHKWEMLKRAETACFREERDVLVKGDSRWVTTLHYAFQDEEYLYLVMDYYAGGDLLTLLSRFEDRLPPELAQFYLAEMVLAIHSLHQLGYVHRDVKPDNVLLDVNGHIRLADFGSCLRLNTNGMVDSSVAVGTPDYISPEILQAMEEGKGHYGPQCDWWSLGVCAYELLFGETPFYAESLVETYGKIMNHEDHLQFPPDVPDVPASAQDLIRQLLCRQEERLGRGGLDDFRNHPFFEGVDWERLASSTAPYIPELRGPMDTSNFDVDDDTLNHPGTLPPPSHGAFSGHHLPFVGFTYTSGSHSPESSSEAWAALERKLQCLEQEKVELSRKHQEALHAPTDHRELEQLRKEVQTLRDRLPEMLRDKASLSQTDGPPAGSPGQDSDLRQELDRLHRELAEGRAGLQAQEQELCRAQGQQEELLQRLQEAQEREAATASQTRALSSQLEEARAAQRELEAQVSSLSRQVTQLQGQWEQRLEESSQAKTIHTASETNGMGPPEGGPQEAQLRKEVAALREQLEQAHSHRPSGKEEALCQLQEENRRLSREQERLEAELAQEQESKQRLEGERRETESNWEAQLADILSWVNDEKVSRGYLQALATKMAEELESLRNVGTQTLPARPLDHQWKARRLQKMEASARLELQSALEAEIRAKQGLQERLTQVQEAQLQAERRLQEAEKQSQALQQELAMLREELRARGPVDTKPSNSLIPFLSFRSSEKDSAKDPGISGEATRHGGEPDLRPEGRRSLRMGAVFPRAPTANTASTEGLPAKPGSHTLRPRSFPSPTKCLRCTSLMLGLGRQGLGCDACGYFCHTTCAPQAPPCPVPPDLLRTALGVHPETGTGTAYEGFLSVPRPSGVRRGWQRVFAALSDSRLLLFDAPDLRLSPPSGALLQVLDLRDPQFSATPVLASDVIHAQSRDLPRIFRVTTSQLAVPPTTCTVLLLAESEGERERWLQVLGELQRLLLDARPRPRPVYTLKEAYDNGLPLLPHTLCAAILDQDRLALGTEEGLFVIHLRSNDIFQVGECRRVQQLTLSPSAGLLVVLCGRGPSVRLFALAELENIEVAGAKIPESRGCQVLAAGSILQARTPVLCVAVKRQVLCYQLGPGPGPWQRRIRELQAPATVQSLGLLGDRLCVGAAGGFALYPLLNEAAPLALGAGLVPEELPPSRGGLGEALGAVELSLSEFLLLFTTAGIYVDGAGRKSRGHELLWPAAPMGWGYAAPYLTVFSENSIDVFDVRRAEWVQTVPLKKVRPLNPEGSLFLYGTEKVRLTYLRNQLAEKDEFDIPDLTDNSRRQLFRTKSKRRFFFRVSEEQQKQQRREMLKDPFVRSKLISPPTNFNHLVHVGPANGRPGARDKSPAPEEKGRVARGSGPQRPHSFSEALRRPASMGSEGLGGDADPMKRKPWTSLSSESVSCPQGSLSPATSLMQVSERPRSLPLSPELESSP
Chain of MAST4 (O15021 whole entry): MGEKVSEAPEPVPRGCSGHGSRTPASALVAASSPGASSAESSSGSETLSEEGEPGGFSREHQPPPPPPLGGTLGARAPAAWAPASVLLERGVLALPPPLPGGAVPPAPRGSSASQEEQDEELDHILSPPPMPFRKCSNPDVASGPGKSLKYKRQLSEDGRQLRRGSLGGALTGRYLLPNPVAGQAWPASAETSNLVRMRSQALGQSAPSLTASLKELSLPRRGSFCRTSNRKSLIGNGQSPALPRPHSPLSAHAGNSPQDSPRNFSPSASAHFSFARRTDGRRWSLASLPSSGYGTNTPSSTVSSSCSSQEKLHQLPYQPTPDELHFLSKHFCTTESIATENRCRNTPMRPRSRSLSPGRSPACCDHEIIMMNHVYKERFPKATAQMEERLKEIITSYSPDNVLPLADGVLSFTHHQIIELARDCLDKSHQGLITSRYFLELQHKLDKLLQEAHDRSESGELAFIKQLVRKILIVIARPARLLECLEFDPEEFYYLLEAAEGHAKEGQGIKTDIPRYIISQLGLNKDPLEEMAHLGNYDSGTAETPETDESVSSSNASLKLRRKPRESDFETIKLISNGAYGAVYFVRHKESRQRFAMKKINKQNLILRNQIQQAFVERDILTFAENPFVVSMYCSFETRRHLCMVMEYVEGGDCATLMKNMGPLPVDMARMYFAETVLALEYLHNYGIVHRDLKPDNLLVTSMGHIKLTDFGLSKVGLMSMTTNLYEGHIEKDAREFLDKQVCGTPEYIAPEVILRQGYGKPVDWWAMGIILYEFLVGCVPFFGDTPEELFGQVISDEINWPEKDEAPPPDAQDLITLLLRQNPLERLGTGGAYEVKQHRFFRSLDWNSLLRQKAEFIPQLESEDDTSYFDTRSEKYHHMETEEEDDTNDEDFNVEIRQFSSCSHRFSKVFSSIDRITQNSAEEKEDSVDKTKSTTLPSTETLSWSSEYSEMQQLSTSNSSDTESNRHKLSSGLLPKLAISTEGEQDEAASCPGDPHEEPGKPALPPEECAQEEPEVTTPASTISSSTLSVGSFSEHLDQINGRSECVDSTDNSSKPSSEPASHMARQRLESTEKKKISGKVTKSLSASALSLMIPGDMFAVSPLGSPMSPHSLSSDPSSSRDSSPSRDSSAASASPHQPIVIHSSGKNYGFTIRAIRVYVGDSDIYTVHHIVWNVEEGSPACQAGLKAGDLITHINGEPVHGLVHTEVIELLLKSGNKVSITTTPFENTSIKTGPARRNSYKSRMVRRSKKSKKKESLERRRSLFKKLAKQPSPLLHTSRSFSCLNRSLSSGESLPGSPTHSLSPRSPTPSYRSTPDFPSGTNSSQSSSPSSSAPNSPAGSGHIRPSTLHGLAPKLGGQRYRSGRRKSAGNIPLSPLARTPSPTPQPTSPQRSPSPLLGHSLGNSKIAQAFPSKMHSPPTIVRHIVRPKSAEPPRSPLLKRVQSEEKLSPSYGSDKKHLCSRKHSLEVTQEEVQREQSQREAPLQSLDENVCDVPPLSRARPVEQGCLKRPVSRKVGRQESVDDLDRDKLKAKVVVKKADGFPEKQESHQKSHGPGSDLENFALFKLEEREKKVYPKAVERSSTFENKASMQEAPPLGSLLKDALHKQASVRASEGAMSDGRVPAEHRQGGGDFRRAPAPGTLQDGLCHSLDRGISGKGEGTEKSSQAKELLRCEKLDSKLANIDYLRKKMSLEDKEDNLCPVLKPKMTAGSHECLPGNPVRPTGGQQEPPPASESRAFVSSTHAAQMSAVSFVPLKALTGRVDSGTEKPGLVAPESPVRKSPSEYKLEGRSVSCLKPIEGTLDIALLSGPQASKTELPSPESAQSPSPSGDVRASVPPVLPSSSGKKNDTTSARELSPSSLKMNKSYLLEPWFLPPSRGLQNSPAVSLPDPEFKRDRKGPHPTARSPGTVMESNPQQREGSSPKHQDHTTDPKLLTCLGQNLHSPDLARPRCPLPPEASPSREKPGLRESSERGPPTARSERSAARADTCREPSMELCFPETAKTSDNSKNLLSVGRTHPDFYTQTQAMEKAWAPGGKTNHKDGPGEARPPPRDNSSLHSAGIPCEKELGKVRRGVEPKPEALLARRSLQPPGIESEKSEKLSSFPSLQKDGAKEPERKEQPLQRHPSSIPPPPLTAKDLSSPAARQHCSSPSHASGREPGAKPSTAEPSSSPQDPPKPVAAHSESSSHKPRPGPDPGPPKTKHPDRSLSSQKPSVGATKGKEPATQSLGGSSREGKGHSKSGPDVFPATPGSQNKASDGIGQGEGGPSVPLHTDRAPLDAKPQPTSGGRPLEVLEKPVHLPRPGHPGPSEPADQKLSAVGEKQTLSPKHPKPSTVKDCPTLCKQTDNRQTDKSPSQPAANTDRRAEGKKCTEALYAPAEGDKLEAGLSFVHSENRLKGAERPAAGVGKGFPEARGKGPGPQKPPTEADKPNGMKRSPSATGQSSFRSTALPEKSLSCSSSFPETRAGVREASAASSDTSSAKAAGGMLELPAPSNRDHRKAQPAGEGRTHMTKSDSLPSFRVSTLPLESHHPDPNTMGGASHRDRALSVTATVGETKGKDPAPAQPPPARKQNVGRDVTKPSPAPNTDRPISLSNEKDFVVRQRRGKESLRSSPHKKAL
Chain of UniProt P78368 (P78368 whole entry, looked up): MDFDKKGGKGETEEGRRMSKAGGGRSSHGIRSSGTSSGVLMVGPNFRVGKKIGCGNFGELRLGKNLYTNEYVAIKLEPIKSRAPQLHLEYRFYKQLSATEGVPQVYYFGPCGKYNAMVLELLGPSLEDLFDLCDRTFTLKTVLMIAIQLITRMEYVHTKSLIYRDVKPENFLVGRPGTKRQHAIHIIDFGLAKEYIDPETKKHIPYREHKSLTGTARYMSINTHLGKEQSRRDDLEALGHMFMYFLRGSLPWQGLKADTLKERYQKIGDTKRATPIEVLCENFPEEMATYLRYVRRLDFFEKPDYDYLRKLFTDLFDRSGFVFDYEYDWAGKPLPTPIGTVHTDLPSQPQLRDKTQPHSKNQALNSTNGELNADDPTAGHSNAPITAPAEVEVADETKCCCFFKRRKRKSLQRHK
Chain of UniProt P28482 (P28482 whole entry): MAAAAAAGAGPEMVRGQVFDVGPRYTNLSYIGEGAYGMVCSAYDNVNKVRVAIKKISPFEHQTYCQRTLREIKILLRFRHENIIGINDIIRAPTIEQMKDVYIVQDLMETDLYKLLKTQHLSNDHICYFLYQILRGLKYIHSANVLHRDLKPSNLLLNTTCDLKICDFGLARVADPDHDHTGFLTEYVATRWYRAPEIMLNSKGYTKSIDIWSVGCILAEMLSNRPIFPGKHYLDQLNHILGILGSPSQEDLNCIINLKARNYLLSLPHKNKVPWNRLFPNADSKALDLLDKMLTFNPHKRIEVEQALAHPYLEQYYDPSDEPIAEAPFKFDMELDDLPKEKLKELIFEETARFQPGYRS

SMILES: C#CCNC(=O)c1cc(Nc2cc(C3CC3)[nH]n2)nc(N2CCN(Cc3ccc(S(=O)(=O)F)cc3)CC2)n1
pIC50 [7]: 4.7
pIC50 [8]: < 4.52
pIC50 [9]: 5.32
pIC50 [10]: < 4.52
pIC50 [11]: < 4.52
pIC50 [12]: 5.49

SMILES: CCNC(=O)c1cc(Nc2cc(C)[nH]n2)nc(N2CCN(Cc3ccc(S(=O)(=O)F)cc3)CC2)n1
pIC50 [13]: < 4.52
pIC50 [14]: < 4.52
pIC50 [15]: < 4.52

SMILES: CCc1cnn2c(NCc3ccc[n+]([O-])c3)cc(N3CCCC[C@H]3CCO)nc12 [dinaciclib]
pIC50 [16]: < 4.52
pIC50 [17]: < 4.52
pIC50 [18]: < 4.52
pIC50 [19]: < 4.52
pIC50 [20]: < 4.52
pIC50 [21]: 6.8
pIC50 [22]: < 4.52
pIC50 [23]: < 4.52

Now from value to molecule:

pIC50 [1]: < 4.52
pIC50 [2]: < 4.52
pIC50 [3]: < 4.52
pIC50 [4]: < 4.52
SMILES: Cc1cc(Nc2cc(C(=O)NCCNC(=O)OC3CC/C=C/CCC3)nc(N3CCN(Cc4ccc(S(=O)(=O)F)cc4)CC3)n2)n[nH]1 (stereo not drawn)

pIC50 [5]: < 4.52
pIC50 [6]: 4.77
SMILES: O=C(NCCNC(=O)c1cc(Nc2cc(C3CC3)[nH]n2)nc(N2CCN(Cc3ccc(S(=O)(=O)F)cc3)CC2)n1)OC1CC/C=C/CCC1 (stereo not drawn)

From the supplement of paper PMC12076712
